One assay relates to RK3E-Transgene KRAS. Put plainly: Drug response testing (Cell Titer-Glo proliferation), RK3E KRAS. The settings on record: Rattus norvegicus, 72 h, read-out: Stimulated Proliferation (IC50). Background: ATP-based viability assays read luminescence as a measure of living cells.
For another assay, the system named is RK3E-Transgene FGFR3. Put plainly: Drug response testing (Cell Titer-Glo proliferation), RK3E FGFR3. The note with it: Rattus norvegicus, 72 h, read-out: Stimulated Proliferation (IC50).
In assay [1] the test system is RK3E-Transgene BAIA2PL1 (FGFR fusion stably transfected RK3E cells). Put plainly: Drug response testing (Cell Titer-Glo proliferation), RK3E FGFR3:BAIAP2L1. The note with it: Rattus norvegicus, 72 h, read-out: Stimulated Proliferation (IC50).
Protocol: (§1) After 24 hours, cells were serum starved overnight, then re-fed with 0.5% FBS growth media. […] The Microtiter plates were then incubated for 72 hours and assayed for adenosine triphosphate (ATP; a marker of metabolically active cells) content using the Cell Titer-Glo® Luminescent Cell Viability assay (Promega Corp., Madison, WI, USA) following the manufacturer's instructions, with modifications. Briefly, cells were allowed to equilibrate to room temperature, at which time a 1:1 mixture of Cell Titer-Glo® reagent was added. Cells were then placed on an orbital shaker for 2 minutes and incubated for 10 minutes at room temperature to stabilize the luminescent signal. The luminescence was quantified and measurements were conducted using an Envision Multilabel plate reader (Perkin Elmer; Waltham, MA, USA).
In assay [2] the test system is RK3E-Transgene TACC3-V1 (FGFR fusion stably transfected RK3E cells). Put plainly: Drug response testing (Cell Titer-Glo proliferation), RK3E FGFR3:TACC3 v1. The settings on record: Rattus norvegicus, 72 h, read-out: Stimulated Proliferation (IC50).
Protocol: (§2) RK3E (rat kidney epithelial cells) cells were purchased from ATCC (Manassas, VA, USA) and cultured in DMEM supplemented with FBS and antibiotics (Invitrogen, Grand Island, NY, USA).
as §1
Assay [3] concerns FGFR fusion stably transfected RK3E cells. Put plainly: Drug response testing for FGFR-fusion overexpressing cell lines (overall statement). The settings on record: for sensitivity of cells harboring the FGFR fusions to the FGFR inhibitor in vitro: empty vector control did not show sensitivity.
Protocol: as §1
Assay [4] concerns RK3E-Transgene Vector (empty vector control RK3E cells). Put plainly: Drug response testing (Cell Titer-Glo proliferation), RK3E empty vector control. The note with it: Rattus norvegicus, 72 h, read-out: Stimulated Proliferation (IC50).
Protocol: as §1
For assay [5], the system named is RK3E-Transgene TACC3-V3 (FGFR fusion stably transfected RK3E cells). Put plainly: Drug response testing (Cell Titer-Glo proliferation), RK3E FGFR3:TACC3 v3. The note with it: Rattus norvegicus, 72 h, read-out: Stimulated Proliferation (IC50).
Protocol: as §2, §1
The subject of assay [6] is phosphorylation of FGFR, MAPK and S6 in FGFR fusion stably transfected RK3E cells. Put plainly: Downstream target expression (immunoblotting). In kind it is cell-based, rat. The note with it: 1 μM, in the presence of ligands, 1 hour; FIGS. 14A-14H. The protocol: For immunoblotting, whole cell lysates were collected in RIPA buffer (Thermo Scientific, Waltham, MA, USA) and sample protein concentration was assayed using BCA Protein Assay (Thermo Scientific). Equal amounts of protein (30 μg per lane) were loaded onto on 4-12% Bis-Tris gels (Invitrogen) before an SDS-page was performed. Proteins were transferred to nitrocellulose membranes and probed with antibodies against p-FGFR, total-FGFR2, p-MAPK, total-MAPK, p-S6, total S6, B-actin (Cell Signaling Technology, Danvers, MA, USA), and total-FGFR3 (Santa Cruz, Dallas, TX, USA). The membranes were blocked with Odyssey blocking buffer for 1 h at room temperature and incubated overnight at 4° C. in a primary antibody solution diluted in Odyssey blocking buffer (1:1000). After three washes in 0.1% Tween tris buffered saline (TBST), the membranes were probed with goat anti-mouse or donkey anti-rabbit IR-Dye […] or 800 cw labeled secondary antisera in Odyssey blocking buffer for 1 h at room temperature. Washes were repeated after secondary labeling and the membranes were imaged using a LiCor Odyssey scanner and the Odyssey 3.0 analytical software (LiCor, Lincoln, NE, USA).
For orientation: A western blot detects proteins with antibodies after separation by electrophoresis.

Assay [7] concerns advanced solid tumors (patients with FGFR fusion genes / FGFR aberrations). Put plainly: Phase I First-In-Human study in patients with advanced solid tumor. The format is in vivo. The note with it: FIG. 11.
For assay [8], the system named is RK3E-Transgene AFF3 (FGFR fusion stably transfected RK3E cells). Put plainly: Drug response testing (Cell Titer-Glo proliferation), RK3E FGFR2:AFF3. The note with it: Rattus norvegicus, 72 h, read-out: Stimulated Proliferation (IC50).
Protocol: as §2, §1
Assay [9] has as its system RK3E-Transgene CCDC6 (FGFR fusion stably transfected RK3E cells). Put plainly: Drug response testing (Cell Titer-Glo proliferation), RK3E FGFR2:CCDC6. The settings on record: Rattus norvegicus, 72 h, read-out: Stimulated Proliferation (IC50).
Description: (§3) RK3E (rat kidney epithelial cells) cells were purchased from ATCC (Manassas, VA, USA) and cultured in DMEM supplemented with FBS and antibiotics (Invitrogen, Grand Island, NY, USA). FGFR fusion gene constructs were designed and cloned into the pReceiver expression vector (Genecopoeia, Rockville, MD, USA), which contains an HA-tag. Clones were transfected into RK3E cells using the Amaxa Cell Line Nucleofector (Lonza, Basel, Switzerland) following the manufacturer's protocol. The stably transfected cells were selected in complete medium with 800 ug/ml of G418 (Invitrogen).
as §1
The subject of another assay is RK3E-Transgene FGFR2. Put plainly: Drug response testing (Cell Titer-Glo proliferation), RK3E FGFR2. The note with it: Rattus norvegicus, 72 h, read-out: Stimulated Proliferation (IC50).
In assay [10] the test system is RK3E-Transgene CASP7 (FGFR fusion stably transfected RK3E cells). Put plainly: Drug response testing (Cell Titer-Glo proliferation), RK3E FGFR2:CASP7. The note with it: Rattus norvegicus, 72 h, read-out: Stimulated Proliferation (IC50).
Description: as §3, §1
Assay [11] deals with RK3E-Transgene BICC1 (FGFR fusion stably transfected RK3E cells). Put plainly: Drug response testing (Cell Titer-Glo proliferation), RK3E FGFR2:BICC1. The settings on record: Rattus norvegicus, 72 h, read-out: Stimulated Proliferation (IC50).
Protocol: as §2, §1
For assay [12], the system named is RK3E-Transgene OFD1 (FGFR fusion stably transfected RK3E cells). Put plainly: Drug response testing (Cell Titer-Glo proliferation), RK3E FGFR2:OFD1. The note with it: Rattus norvegicus, 72 h, read-out: Stimulated Proliferation (IC50).
Description: as §3, §1

Protocol for RK3E-Transgene FGFR2: as §2, §1
Protocol for RK3E-Transgene FGFR3: as §1
Protocol for RK3E-Transgene KRAS: as §1

With `COc1cc(CCc2cc(NC(=O)c3ccc(N4C[C@@H](C)N[C@@H](C)C4)cc3)n[nH]2)cc(OC)c1` [AZD4547, N-[5-[2-(3,5-Dimethoxyphenyl)ethyl]-2H-pyrazol-3-yl]-4-(3,5-diemthylpiperazin-1-yl)benzamide], the IC50 in the assay on RK3E-Transgene KRAS was 1480 nM; with RK3E-Transgene FGFR3, 5.69 µM; in assay [1] it was 11.5 nM; in assay [2], 16.5 nM; in assay [4], 8.01 µM; in assay [5], 8.66 nM. For the same molecule, the “sensitivity of cells harboring the FGFR fusions to the FGFR inhibitor in vitro” value in assay [3] was “showed sensitivity”. The “phosphorylation of FGFR and downstream targets MAPK and S6 (immunoblot)” value (“phosphorylation” below) in assay [6] is “inhibited phosphorylation of FGFR and downstream targets i.e. MAPK and S6”.

In the case of `COc1cc(OC)cc(N(CCNC(C)C)c2ccc3ncc(-c4cnn(C)c4)nc3c2)c1` [JNJ-42756493, N-(3,5-dimethoxyphenyl)-N′-(1-methylethyl)-N-[3-(1-methyl-1H-pyrazol-4-yl)quinoxalin-6-yl]ethane-1,2-diamine], the “clinical responses (RECIST)” value in [7] (9 mg once a day (QD), 12 mg QD and 12 mg 7d on/off, patients with the FGFR fusion genes) is given as “Significant clinical responses”. For the same molecule, the “maximal percentage reduction of sum of the diameters of targeted lesions from baseline (RECIST)” value in assay [7] (dose level >= 6 mg, daily or intermittent (7 days on - 7 days off), patients whose tumors harbor FGFR gene translocations and mutations) is listed as “appear to be more sensitive”. The “sensitivity when compared to AZD4547 and NVP-BGJ398” value in [3] (nanomolar concentration range) is recorded as “enhanced sensitivity”. Further, in assay [6], the “phosphorylation” value was “inhibited phosphorylation of FGFR and downstream targets i.e. MAPK and S6”.

As to `CCN1CCN(c2ccc(Nc3cc(N(C)C(=O)Nc4c(Cl)c(OC)cc(OC)c4Cl)ncn3)cc2)CC1` [NVP-BGJ398, 3-(2,6-Dichloro-3,5-dimethoxy-phenyl)-1-{6-[4-(4-ethyl-piperazin-1-yl)-phenylamino]-pyrimid-4-yl}-1-methyl-urea], the IC50 was 2140 nM with RK3E-Transgene KRAS; 6.34 µM in the assay on RK3E-Transgene FGFR3; 2.27 nM in [8]; 5.16 nM in assay [1]; 2.59 nM in [2]; more than 10 µM in assay [4]. In addition, the IC50 is 10.7 nM in assay [9]; more than 10 µM in the assay with RK3E-Transgene FGFR2; 242 nM in [10]; 4.09 nM in [5]; 18.2 nM in assay [11]; 16 nM in assay [12]. Further, the “sensitivity of cells harboring the FGFR fusions to the FGFR inhibitor in vitro” value in [3] is “showed sensitivity”. Moreover, the “phosphorylation” value in assay [6] is “inhibited phosphorylation of FGFR and downstream targets i.e. MAPK and S6”.

Values taken from US12037644B2, “Use of FGFR mutant gene panels in identifying cancer patients that will be responsive to treatment with an FGFR inhibitor” (Janssen Pharmaceutica NV, priority 2014, dated 2024).
